How the values were obtained:
[1] = tested on: Glomerella lacenarium (Colletotrichum lagenarium); test: Glomerella lagenarium liquid culture / cucumber / preventative (anthracnose); type: cell-based; details: Colletotrichum orbiculare; 20 ppm in the applied formulation; liquid culture (PDB), growth inhibition measured photometrically 3 to 4 days after application; compared to untreated; read-out: disease control
Experimental: Mycelia fragments or conidia suspensions of a fungus prepared either freshly from liquid cultures of the fungus or from cryogenic storage, are directly mixed into nutrient broth. DMSO solutions of the test compound (max. 10 mg/ml) are diluted with 0.025% Tween20 by a factor of 50 and 10 μl of this solution is pipetted into a microtiter plate (96-well format). The nutrient broth containing the fungal spores/mycelia fragments is then added to give an end concentration of the tested compound. The test plates are incubated in the dark at 24° C. and 96% relative humidity. The inhibition of fungal growth is determined photometrically after 2 to 7 days, depending on the pathosystem, and percent antifungal activity relative to the untreated check is calculated.
Conidia of the fungus from cryogenic storage are directly mixed into nutrient broth (PDB—potato dextrose broth). After placing a (DMSO) solution of test compound into a microtiter plate (96-well format), the nutrient broth containing the fungal spores is added.
The following compounds at 20 ppm in the applied formulation give at least 80% disease control in this test when compared to untreated control under the same conditions, which show extensive disease development.

[2] = tested on: Puccinia recondita f. Sp. Tritici; test: Puccinia recondita f. sp. tritici / wheat / leaf disc curative (brown rust); type: in vivo; details: foliar, 24 h, 200 ppm in the applied formulation, wheat leaf segments cv. Kanzler, curative (applied 1 day after inoculation), compared to untreated, read-out: disease control
Experimental: (§1) Leaf disks or leaf segments of various plant species are cut from plants grown in a greenhouse. The cut leaf disks or segments are placed in multiwell plates (24-well format) onto water agar. The leaf disks are sprayed with a test solution before (preventative) or after (curative) inoculation. Compounds to be tested are prepared as DMSO solutions (max. 10 mg/ml) which are diluted to the appropriate concentration with 0.025% Tween20 just before spraying. The inoculated leaf disks or segments are incubated under defined conditions (temperature, relative humidity, light, etc.) according to the respective test system. A single evaluation of disease level is carried out 3 to 14 days after inoculation, depending on the pathosystem. Percent disease control relative to the untreated check leaf disks or segments is then calculated.
Wheat leaf segments cv. Kanzler are placed on agar in multiwell plates (24-well format). The leaf segments are then inoculated with a spore suspension of the fungus. Plates were stored in darkness at 19° C. and 75% relative humidity. The formulated test compound diluted in water was applied 1 day after inoculation. The leaf segments were incubated at 19° C. and 75% relative humidity under a light regime of 12 hours light/12 hours darkness in a climate cabinet and the activity of a compound was assessed as percent disease control compared to untreated when an appropriate level of disease damage appears in untreated check leaf segments (6 to 8 days after application).
The following compounds at 200 ppm in the applied formulation give at least 80% disease control in this test when compared to untreated control leaf disks under the same conditions, which show extensive disease development.

[3] = tested on: Puccinia recondita f. Sp. Tritici; test: Puccinia recondita f. sp. tritici / wheat / leaf disc preventative (brown rust); type: in vivo; details: foliar, 200 ppm in the applied formulation, wheat leaf segments cv. Kanzler, preventative (inoculated 1 day after application), compared to untreated, read-out: disease control
Experimental: as §1, with “calculated. Wheat leaf segments cv. Kanzler were placed on agar in multiwell plates (24-well format) and sprayed with the formulated test compound diluted in water. The leaf disks were inoculated with a spore suspension of the fungus 1 day after application. The inoculated leaf segments were incubated at 19° C. and 75% relative humidity (rh) under a light regime of 12 hours light/12 hours darkness in a climate cabinet and the activity of a compound was assessed as percent disease control compared to untreated when an appropriate level of disease damage appears in untreated check leaf segments (7 to 9 days after application). The following compounds at 200 ppm in the applied formulation give at least 80% disease control in this test when compared to untreated control leaf disks under the same conditions, which show extensive disease development.” for “calculated.”

CCC(C)C(=O)NCc1ccc(-c2noc(C(F)(F)F)n2)cn1 (stereo not drawn) [Compound 1.71, 2-methyl-N-[[5-[5-(trifluoromethyl)-1,2,4-oxadiazol-3-yl]-2-pyridyl]methyl]butanamide]
≥ 80%: inhibition of growth at 20 ppm [1] | pest or weed control at 200 ppm [2] | pest or weed control at 200 ppm [3]

COCCCC(=O)NCc1ccc(-c2noc(C(F)(F)F)n2)c(F)c1 [Compound 1.40, N-[[3-fluoro-4-[5-(trifluoromethyl)-1,2,4-oxadiazol-3-yl]phenyl]methyl]-4-methoxy-butanamide]
≥ 80%: inhibition of growth at 20 ppm [1] | pest or weed control at 200 ppm [2] | pest or weed control at 200 ppm [3]

COCCOC(=O)NCc1ccc(-c2noc(C(F)(F)F)n2)cn1 [Compound 2.24, 2-methoxyethyl N-[[5-[5-(trifluoromethyl)-1,2,4-oxadiazol-3-yl]-2-pyridyl]methyl]carbamate]
≥ 80%: inhibition of growth at 20 ppm [1] | pest or weed control at 200 ppm [2] | pest or weed control at 200 ppm [3]

O=C(NCc1ccc(-c2noc(C(F)(F)F)n2)cn1)OCCCCl [Compound 2.31, 3-chloropropyl N-[[5-[5-(trifluoromethyl)-1,2,4-oxadiazol-3-yl]-2-pyridyl]methyl]carbamate]
≥ 80%: inhibition of growth at 20 ppm [1] | pest or weed control at 200 ppm [2] | pest or weed control at 200 ppm [3]

CC(C)C(=O)NCc1ccc(-c2noc(C(F)(F)F)n2)cn1 [Compound 1.66, 2-methyl-N-[[5-[5-(trifluoromethyl)-1,2,4-oxadiazol-3-yl]-2-pyridyl]methyl]propanamide]
≥ 80%: inhibition of growth at 20 ppm [1] | pest or weed control at 200 ppm [2] | pest or weed control at 200 ppm [3]

C#CCOC(=O)NCc1ccc(-c2noc(C(F)(F)F)n2)cn1 [Compound 2.35, prop-2-ynyl N-[[5-[5-(trifluoromethyl)-1,2,4-oxadiazol-3-yl]-2-pyridyl]methyl]carbamate]
≥ 80%: inhibition of growth at 20 ppm [1] | pest or weed control at 200 ppm [2] | pest or weed control at 200 ppm [3]

CCCOC(=O)NCc1ccc(-c2noc(C(F)(F)F)n2)cn1 [Compound 2.20, propyl N-[[5-[5-(trifluoromethyl)-1,2,4-oxadiazol-3-yl]-2-pyridyl]methyl]carbamate]
≥ 80%: inhibition of growth at 20 ppm [1] | pest or weed control at 200 ppm [2] | pest or weed control at 200 ppm [3]

N#CCC(=O)NCc1ccc(-c2noc(C(F)(F)F)n2)cc1F [Compound 1.45, 2-cyano-N-[[2-fluoro-4-[5-(trifluoromethyl)-1,2,4-oxadiazol-3-yl]phenyl]methyl]acetamide]
≥ 80%: inhibition of growth at 20 ppm [1] | pest or weed control at 200 ppm [2] | pest or weed control at 200 ppm [3]

COCCCC(=O)NCc1ccc(-c2noc(C(F)(F)F)n2)c(F)c1F [Compound 1.61, N-[[2,3-difluoro-4-[5-(trifluoromethyl)-1,2,4-oxadiazol-3-yl]phenyl]methyl]-4-methoxy-butanamide]
≥ 80%: inhibition of growth at 20 ppm [1] | pest or weed control at 200 ppm [2] | pest or weed control at 200 ppm [3]

COCCC(=O)NCc1ccc(-c2noc(C(F)(F)F)n2)cc1F [Compound 1.37, N-[[2-fluoro-4-[5-(trifluoromethyl)-1,2,4-oxadiazol-3-yl]phenyl]methyl]-3-methoxy-propanamide]
≥ 80%: inhibition of growth at 20 ppm [1] | pest or weed control at 200 ppm [2] | pest or weed control at 200 ppm [3]

CC(C)(C)NC(=O)NCc1ccc(-c2noc(C(F)(F)F)n2)cc1 [Compound 3.15, 1-tert-butyl-3-[[4-[5-(trifluoromethyl)-1,2,4-oxadiazol-3-yl]phenyl]methyl]urea]
≥ 80%: inhibition of growth at 20 ppm [1] | pest or weed control at 200 ppm [2] | pest or weed control at 200 ppm [3]

O=C(NCc1ccc(-c2noc(C(F)(F)F)n2)cn1)OCCCCCl [Compound 2.28, 4-chlorobutyl N-[[5-[5-(trifluoromethyl)-1,2,4-oxadiazol-3-yl]-2-pyridyl]methyl]carbamate]
≥ 80%: inhibition of growth at 20 ppm [1] | pest or weed control at 200 ppm [2] | pest or weed control at 200 ppm [3]

CC(C)(C)COC(=O)NCc1ccc(-c2noc(C(F)(F)F)n2)cc1 [Compound 2.18, 2,2-dimethylpropyl N-[[4-[5-(trifluoromethyl)-1,2,4-oxadiazol-3-yl]phenyl]methyl]carbamate]
≥ 80%: inhibition of growth at 20 ppm [1] | pest or weed control at 200 ppm [2] | pest or weed control at 200 ppm [3]

CC(=O)NCc1ccc(-c2noc(C(F)(F)F)n2)cn1 [Compound 1.75, N-[[5-[5-(trifluoromethyl)-1,2,4-oxadiazol-3-yl]-2-pyridyl]methyl]acetamide]
≥ 80%: inhibition of growth at 20 ppm [1] | pest or weed control at 200 ppm [2] | pest or weed control at 200 ppm [3]

CCOC(=O)NCc1ccc(-c2noc(C(F)(F)F)n2)cn1 [Compound 2.32, ethyl N-[[5-[5-(trifluoromethyl)-1,2,4-oxadiazol-3-yl]-2-pyridyl]methyl]carbamate]
≥ 80%: inhibition of growth at 20 ppm [1] | pest or weed control at 200 ppm [2] | pest or weed control at 200 ppm [3]

COCCCC(=O)NCc1ccc(-c2noc(C(F)(F)F)n2)cn1 [Compound 1.72, 4-methoxy-N-[[5-[5-(trifluoromethyl)-1,2,4-oxadiazol-3-yl]-2-pyridyl]methyl]butanamide]
≥ 80%: inhibition of growth at 20 ppm [1] | pest or weed control at 200 ppm [2] | pest or weed control at 200 ppm [3]

CC#CCOC(=O)NCc1ccc(-c2noc(C(F)(F)F)n2)cn1 [Compound 2.21, but-2-ynyl N-[[5-[5-(trifluoromethyl)-1,2,4-oxadiazol-3-yl]-2-pyridyl]methyl]carbamate]
≥ 80%: inhibition of growth at 20 ppm [1] | pest or weed control at 200 ppm [2] | pest or weed control at 200 ppm [3]

O=C(NCc1ccc(-c2noc(C(F)(F)F)n2)cn1)OCCF [Compound 2.30, 2-fluoroethyl N-[[5-[5-(trifluoromethyl)-1,2,4-oxadiazol-3-yl]-2-pyridyl]methyl]carbamate]
≥ 80%: inhibition of growth at 20 ppm [1] | pest or weed control at 200 ppm [2] | pest or weed control at 200 ppm [3]

C=CCOC(=O)NCc1ccc(-c2noc(C(F)(F)F)n2)cn1 [Compound 2.25, allyl N-[[5-[5-(trifluoromethyl)-1,2,4-oxadiazol-3-yl]-2-pyridyl]methyl]carbamate]
≥ 80%: inhibition of growth at 20 ppm [1] | pest or weed control at 200 ppm [2] | pest or weed control at 200 ppm [3]

COCCC(=O)NCc1ccc(-c2noc(C(F)(F)F)n2)c(F)c1 [Compound 1.79, N-[[3-fluoro-4-[5-(trifluoromethyl)-1,2,4-oxadiazol-3-yl]phenyl]methyl]-3-methoxy-propanamide]
≥ 80%: inhibition of growth at 20 ppm [1] | pest or weed control at 200 ppm [2] | pest or weed control at 200 ppm [3]

N#CCC(=O)NCc1ccc(-c2noc(C(F)(F)F)n2)c(F)c1 [Compound 1.43, 2-cyano-N-[[3-fluoro-4-[5-(trifluoromethyl)-1,2,4-oxadiazol-3-yl]phenyl]methyl]acetamide]
≥ 80%: inhibition of growth at 20 ppm [1] | pest or weed control at 200 ppm [2] | pest or weed control at 200 ppm [3]

O=C(NCc1ccc(-c2noc(C(F)(F)F)n2)cn1)OCCCl [Compound 2.33, 2-chloroethyl N-[[5-[5-(trifluoromethyl)-1,2,4-oxadiazol-3-yl]-2-pyridyl]methyl]carbamate]
≥ 80%: inhibition of growth at 20 ppm [1] | pest or weed control at 200 ppm [2] | pest or weed control at 200 ppm [3]
